A word on the IC50: it is the concentration needed to halve the response being measured.

The record followed here is publication PMC4503722, “Novel Phenotypic Outcomes Identified for a Public Collection of Approved Drugs from a Publicly Accessible Panel of Assays” (PLoS ONE, 2015).

Test [1] concerns endothelial tube formation in co-cultures of ECFCs and ADSCs treated with VEGF. Nature of the test: cells. In kind it is cell-based, human. The conditions noted are these: for IC50: read-out: VEGF_ADSC\ECFC Angio CD31 TubeArea summarized IC50.
Another test deals with DLD-1. Nature of the test: cells. In kind it is cell-based. Conditions: for IC50: read-out: Basal_Viability ATP DLD-1 summarized IC50.
In the next test the test system is SW480. Nature of the test: cells. In kind it is cell-based. Conditions: for IC50: read-out: Basal_Viability ATP SW480 summarized IC50.
The subject of another test is HCT116. As to the kind of experiment: cells. In kind it is cell-based. The conditions noted are these: for IC50: read-out: Basal_Viability ATP HCT116 summarized IC50.
Test [2] deals with HCT116 cells treated with a GSK3β inhibitor. As to the kind of experiment: cells. In kind it is cell-based. Conditions: for IC50: read-out: GSK3b inh pretreated_Viability ATP HCT116 summarized IC50.
The subject of a further test is Colo320. Nature of the test: cells. In kind it is cell-based. The conditions noted are these: for IC50: read-out: Basal_Viability ATP Colo 320 summarized IC50.
The subject of another test is HT-29. Nature of the test: cells. In kind it is cell-based. Conditions: for IC50: read-out: Basal_Viability ATP HT-29 summarized IC50.
Another test deals with RKO. As to the kind of experiment: cells. In kind it is cell-based. Conditions: for IC50: read-out: Basal_Viability ATP RKO summarized IC50.
In another test the test system is SNU-C1. Nature of the test: cells. In kind it is cell-based. The conditions noted are these: for IC50: read-out: Basal_Viability ATP SNU-C1 summarized IC50.
Test [3] concerns ECFC/ADSC co-culture cell nuclei number. Conditions: for IC50: read-out: VEGF_ADSC\ECFC Angio Hoechst NucArea summarized IC50.
The mark [4] stands for this setting: assay number 26, GSK3b inhibitor pretreated.
[5] abbreviates: assay number 23, concentration response.
Where [6] appears, read: assay number 24, concentration response.
[7] abbreviates: assay number 25, basal, concentration response.
Setting [8] is: assay number 26, GSK3b inhibitor pretreated, concentration response.
Setting [9] is: assay number 27, concentration response.
The mark [10] stands for this setting: assay number 28, concentration response.
Where [11] appears, read: assay number 29, concentration response.
Setting [12] is: assay number 30, concentration response.

The structures appear in SMILES notation. Like-named read-outs stand apart in the source and are kept apart here. Bounds are passed on as bounds.

In the case of `CCCCCCCC(=O)OCC(COC(=O)CCCCCCC)OC(=O)CCCCCCC` [NCGC00091285-03], the “VEGF_ADSC\ECFC Angio CD31 TubeArea IC50/EC50” value in [1] was above 10 µM. In addition, the “Basal_Viability ATP DLD-1 IC50/EC50” value in the test with DLD-1 (assay number 23, basal) is recorded as above 20 µM. Besides, the “Basal_Viability ATP SW480 IC50/EC50” value in the test with SW480 (assay number 24, basal) is given as above 20 µM. Moreover, the “Basal_Viability ATP HCT116 IC50/EC50” value in the test on HCT116 (assay number 25, basal) is given as above 20 µM. Besides, in [2] (setting [4]), the “GSK3b inh pretreated_Viability ATP HCT116 IC50/EC50” value is listed as above 20 µM. The “Basal_Viability ATP Colo 320 IC50/EC50” value in the test with Colo320 (assay number 27, basal) was above 20 µM. Besides, in the test on HT-29 (assay number 28, basal), the “Basal_Viability ATP HT-29 IC50/EC50” value is above 20 µM. The “Basal_Viability ATP RKO IC50/EC50” value in the test on RKO (assay number 29, basal) is above 20 µM. Besides, in the test with SNU-C1 (assay number 30, basal), the “Basal_Viability ATP SNU-C1 IC50/EC50” value is above 20 µM. Also, in test [3], the “VEGF_ADSC\ECFC Angio Hoechst NucArea IC50/EC50” value is above 10 µM.
Take `O=C([O-])CCC(=O)OC[C@@H](NC(=O)C(Cl)Cl)[C@H](O)c1ccc([N+](=O)[O-])cc1.[Na+]` [NCGC00094619-06]: the “VEGF_ADSC\ECFC Angio CD31 TubeArea IC50/EC50” value in test [1] was above 10 µM. Besides, the “Basal_Viability ATP DLD-1 IC50/EC50” value in the test with DLD-1 (setting [5]) was above 20 µM. Further, the “Basal_Viability ATP SW480 IC50/EC50” value with SW480 (setting [6]) was above 20 µM. Also, in the test with HCT116 (setting [7]), the “Basal_Viability ATP HCT116 IC50/EC50” value is recorded as above 20 µM. Also, the “GSK3b inh pretreated_Viability ATP HCT116 IC50/EC50” value in test [2] (setting [8]) is reported as above 20 µM. For the same molecule, the “Basal_Viability ATP Colo 320 IC50/EC50” value in the test with Colo320 (setting [9]) is listed as above 20 µM. Further, in the test with HT-29 (setting [10]), the “Basal_Viability ATP HT-29 IC50/EC50” value was above 20 µM. In addition, the “Basal_Viability ATP RKO IC50/EC50” value in the test with RKO (setting [11]) is given as above 20 µM. Also, the “Basal_Viability ATP SNU-C1 IC50/EC50” value in the test on SNU-C1 (setting [12]) is given as above 20 µM. For the same molecule, the “VEGF_ADSC\ECFC Angio Hoechst NucArea IC50/EC50” value in [3] is above 10 µM.
`Oc1c(Br)cc(Br)c2cccnc12` [NCGC00094815-05]: the IC50 in [1] is above 10 µM; in the test with DLD-1, 0.157 µM; in the test with SW480 it was 0.132 µM; with HCT116 it was 0.193 µM; in test [2], 0.183 µM; with Colo320, 0.114 µM. Also, the IC50 in the test on HT-29 is 5.25 µM; with RKO it was 0.163 µM; in the test on SNU-C1, 0.366 µM; in test [3], above 10 µM.
Regarding `Nc1c2ccccc2nc2ccccc12` [NCGC00094857-05], the IC50 in test [1] was above 10 µM; in the test on DLD-1 (assay number 23, basal), above 20 µM; with SW480 (assay number 24, basal) it was above 20 µM; in the test on HCT116 (assay number 25, basal) it was 2.02 µM; in [2] (setting [4]), 3.87 µM; in the test on Colo320 (assay number 27, basal) it was 8.81 µM. Further, the IC50 with HT-29 (assay number 28, basal) is above 20 µM; in the test on RKO (assay number 29, basal) it was above 6.67 µM; in the test with SNU-C1 (assay number 30, basal) it was above 6.67 µM; in test [3], above 10 µM.
Take `CCCCCCCCCCCCCCCC(=O)OC/C=C(C)/C=C/C=C(C)/C=C/C1=C(C)CCCC1(C)C` [NCGC00095056-04]: the IC50 in [1] is above 10 µM; with DLD-1 (assay number 23, basal) it was above 20 µM; in the test on SW480 (assay number 24, basal), above 20 µM; in the test on HCT116 (assay number 25, basal) it was above 20 µM; in [2] (setting [4]), above 20 µM; in the test on Colo320 (assay number 27, basal), above 20 µM. Further, the IC50 is above 20 µM in the test on HT-29 (assay number 28, basal); above 20 µM in the test on RKO (assay number 29, basal); above 20 µM in the test on SNU-C1 (assay number 30, basal); above 10 µM in test [3].
As to `O=C(OCCO)c1ccccc1O` [NCGC00159379-04], the “VEGF_ADSC\ECFC Angio CD31 TubeArea IC50/EC50” value in test [1] is given as above 10 µM. Further, the “Basal_Viability ATP DLD-1 IC50/EC50” value in the test on DLD-1 (setting [5]) is given as above 20 µM. For the same molecule, in the test on SW480 (setting [6]), the “Basal_Viability ATP SW480 IC50/EC50” value is given as above 20 µM. Further, in the test on HCT116 (setting [7]), the “Basal_Viability ATP HCT116 IC50/EC50” value is given as above 20 µM. For the same molecule, the “GSK3b inh pretreated_Viability ATP HCT116 IC50/EC50” value in test [2] (setting [8]) is reported as above 20 µM. The “Basal_Viability ATP Colo 320 IC50/EC50” value in the test with Colo320 (setting [9]) is on record as above 20 µM. Besides, the “Basal_Viability ATP HT-29 IC50/EC50” value in the test on HT-29 (setting [10]) is reported as above 20 µM. Moreover, the “Basal_Viability ATP RKO IC50/EC50” value in the test with RKO (setting [11]) was above 20 µM. Besides, the “Basal_Viability ATP SNU-C1 IC50/EC50” value in the test on SNU-C1 (setting [12]) is above 20 µM. Moreover, the “VEGF_ADSC\ECFC Angio Hoechst NucArea IC50/EC50” value in [3] is reported as above 10 µM.
